Laboratory results from BindingDB's records for doi:10.1016/j.bmcl.2005.12.051 (Procter & Gamble Pharmaceuticals, 2006).

Molecular target: T1, Tyrosine-protein phosphatase non-receptor type 1 [1-298] (Homo sapiens, UniProt P18031)
T1 construct: 1-298
T1 sequence (P18031 whole entry): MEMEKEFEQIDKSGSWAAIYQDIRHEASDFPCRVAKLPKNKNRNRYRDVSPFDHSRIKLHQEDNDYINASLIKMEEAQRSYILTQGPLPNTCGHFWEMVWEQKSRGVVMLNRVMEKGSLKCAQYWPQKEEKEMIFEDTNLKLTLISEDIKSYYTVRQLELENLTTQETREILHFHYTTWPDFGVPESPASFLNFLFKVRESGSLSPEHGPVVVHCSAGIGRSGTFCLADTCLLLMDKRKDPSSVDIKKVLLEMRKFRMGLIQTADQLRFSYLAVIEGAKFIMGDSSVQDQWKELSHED
Assay: Phosphatase Inhibition Assay
Conditions: for IC50: pH 7, 22 °C
Method: The activity of PTP1B enzyme was assayed with DiFMUP as substrate. Hydrolysis of substrate was monitored on a Victor V plate reader (Wallac). Kinetic measurements were measured using 3-5 concentrations of inhibitor around the IC50 over a range of substrate concentrations (3-500 uM). Data were used to determine Km/Ki/competitive inhibition using GraphPad Prism software.

| Ki [µM] | Structure (SMILES) | IC50 [µM] |
| --- | --- | --- |
| > 500 | Cn1nc(-c2ccccc2)cc1NS(=O)(=O)O [N-(1-methyl-3-phenyl-1H-pyrazol-5-yl)sulfamic acid] |  |
|  | CNC(=O)[C@@H]1Cc2ccc(NS(=O)(=O)O)cc2CN1C(=O)C=Cc1coc2ccccc12 [ammonium N-[(3S)-2-[(2E)-3-(1-benzofuran-3-yl)prop-2-enoyl]-3-(methylcarbamoyl)-1,2,3,4-tetrahydroisoquinolin-7-yl]sulfamate] | 24.9 |
|  | CNC(=O)[C@@H]1Cc2ccc(NS(=O)(=O)O)cc2CN1C(=O)N[C@@H](Cc1ccccc1)C(=O)OC(C)(C)C [ammonium N-[(3S)-2-{[(2S)-1-(tert-butoxy)-1-oxo-3-phenylpropan-2-yl]carbamoyl}-3-(methylcarbamoyl)-1,2,3,4-tetrahydroisoquinolin-7-yl]sulfamate] | > 500 |
